Laboratory results from ChEMBL document CHEMBL5233245, “Monocarboxylate transporter 1 and 4 inhibitors as potential therapeutics for treating solid tumours: A review with structure-activity relationship insights” (Eur J Med Chem, 2020).

Target: T1, Monocarboxylate transporter 1 (Rattus norvegicus) (UniProt P53987)
T1 sequence (whole entry): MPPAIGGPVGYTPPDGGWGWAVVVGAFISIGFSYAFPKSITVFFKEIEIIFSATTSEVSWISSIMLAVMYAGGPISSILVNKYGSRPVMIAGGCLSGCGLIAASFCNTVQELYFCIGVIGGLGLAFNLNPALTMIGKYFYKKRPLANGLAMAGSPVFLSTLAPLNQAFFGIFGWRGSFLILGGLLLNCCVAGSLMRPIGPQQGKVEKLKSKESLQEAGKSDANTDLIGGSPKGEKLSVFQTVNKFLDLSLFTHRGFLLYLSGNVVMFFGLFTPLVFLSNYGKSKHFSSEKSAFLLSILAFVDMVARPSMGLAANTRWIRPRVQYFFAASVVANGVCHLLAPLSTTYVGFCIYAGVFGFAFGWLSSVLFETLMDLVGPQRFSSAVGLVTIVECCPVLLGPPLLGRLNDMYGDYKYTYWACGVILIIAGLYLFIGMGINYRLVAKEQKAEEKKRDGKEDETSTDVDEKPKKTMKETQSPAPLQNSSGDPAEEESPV
Test: Inhibition of rat MCT1 expressed in human MDA-MB-231 cells in presence of [3H]-GHB by liquid scintillation spectroscopy analysis
Type: cell-based
Set-up: concentration or dose not given beside the values
Details: concentration not given here

Structure (SMILES)	inhibition [%]
O=c1cc(-c2ccc(O)c(O)c2)oc2cc(O)cc(O)c12	100
COc1ccc(-c2cc(=O)c3c(O)cc(O)cc3o2)cc1O	49
O=c1cc(-c2ccc(O)cc2)oc2cc(O)cc(O)c12	50
O=c1c(O)c(-c2ccc(O)c(O)c2)oc2cc(O)cc(O)c12	87
O=c1c(O)c(-c2ccc(O)cc2O)oc2cc(O)cc(O)c12	100
O=c1c(O)c(-c2ccc(O)c(O)c2)oc2cc(O)ccc12	93
